{
  "source": "patent US20250195536A1",
  "about": "“BICYCLOOCTANE KRAS INHIBITORS” (Incyte Corporation, priority 2023, published 2025)",
  "key": {"KRAS G12D": {"biological_target": "KRAS G12D (Homo sapiens, UniProt P01116, G12D)", "sequence (P01116 1-188 isoform P01116-2 G12D)": "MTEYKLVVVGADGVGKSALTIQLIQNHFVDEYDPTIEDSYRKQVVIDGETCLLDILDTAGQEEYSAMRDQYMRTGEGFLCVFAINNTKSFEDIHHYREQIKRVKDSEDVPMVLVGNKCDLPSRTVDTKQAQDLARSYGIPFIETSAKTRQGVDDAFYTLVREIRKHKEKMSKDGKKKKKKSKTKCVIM", "test": "GDP-GTP exchange assay (KRAS G12D);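 further: one dagger IC50 up to 100 nM and two daggers above 100 nM up to 1 μM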", "assay_type": "biochemical", "details": "bodipy-GDP/GppNHp exchange with SOS1; 4 h pre-incubation, 2 h reaction", "method_in_brief": "(§1)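 Bodipy-GDP-loaded KRAS (2.5 nM final) was pre-incubated 4 h at r.t. with inhibitor in Hepes pH 7.5 buffer with MgCl2, then exchange started with GppNHp (500 μM) and SOS1 (150 nM) final. Fluorescence (ex 485/em 520 nm) read after 2 h for G12D, 3 h for G12V; IC50 from four-parameter logistic fit.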"}, "KRAS G12V": {"biological_target": "KRAS G12V (Homo sapiens, UniProt P01116, G12V)", "sequence (P01116 1-188 isoform P01116-2 G12V)": "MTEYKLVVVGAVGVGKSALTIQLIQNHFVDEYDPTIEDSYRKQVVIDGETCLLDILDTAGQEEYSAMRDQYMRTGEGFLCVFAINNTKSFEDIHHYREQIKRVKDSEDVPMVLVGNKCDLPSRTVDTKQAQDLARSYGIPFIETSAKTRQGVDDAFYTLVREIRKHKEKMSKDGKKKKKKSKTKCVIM", "test": "GDP-GTP exchange assay (KRAS G12V)", "assay_type": "biochemical", "details": "bodipy-GDP/GppNHp exchange with SOS1; 3 h incubation after GppNHp-SOS1", "method_in_brief": "as §1"}, "[1]": {"test": "Caco2 assay (permeability, Papp A-B)", "assay_type": "in vitro ADME", "details": "human, Caco-2, absorptive direction (A-B), 50 μM test compound, 4% BSA in receiver", "method_in_brief": "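Caco-2 monolayers, 22-25 days on Transwells, TEER 300 Ω·cm^2, dosed apically with 50 μM compound in HBSS; basolateral HBSS with 4% BSA. 120 min at 37 °C, samples quantified by LCMS; Papp (A-B) from receiver-side cumulative flux slope, donor volume, surface area and initial donor amount.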"}},
  "data": [
    {"compound": "COC(=O)N1C[C@@H]2C[C@H](C1)N(C(=O)C1CC1)[C@H]2c1cc2c(C)nc3c(F)c(-c4cccc(Cl)c4Cl)c(CCC#N)cc3c2n1[C@H]1[C@H]2CN[C@@H]1C2", "note": "(atropisomer, axis not shown; (Ra)) [Example 108, Methyl (1 S,5R,7R)-7-((Ra)-1-((1R,4R,5S)-2-azabicyclo[2.1.1]hexan-5-yl)-8-(2-cyanoethyl)-7-(2,3-dichlorophenyl)-6-fluoro-4-methyl-1H-pyrrolo[3,2-c]quinolin-2-yl)-6-(cyclopropanecarbonyl)-3,6-diazabicyclo[3.2.1]octane-3-carboxylate];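 on G12V exchange (KRAS G12V exchange assay IC50): one dagger IC50 up to 100 nM and two daggers above 100 nM up to 1 μM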", "values": [
      {"measurement": "G12D_exchange (KRAS_G12D exchange assay IC50)", "setting": "KRAS G12D", "result": "†"},
      {"measurement": "G12V_exchange (KRAS_G12V exchange assay IC50)", "setting": "KRAS G12V", "result": "†"},
      {"measurement": "Papp A→B at 120 min, 50 μM", "setting": "[1]", "result": "≤ 0.5", "unit": "×10⁻⁶ cm/s"}
    ]},
    {"compound": "Cc1nc2c(F)c(-c3cccc(Cl)c3Cl)c(CCC#N)cc2c2c1cc([C@H]1[C@H]3C[C@H](CN(c4cc(C)n(C)n4)C3)N1C(=O)C1CC1)n2[C@H]1[C@H]2CN[C@@H]1C2", "note": "(atropisomer, axis not shown; (Ra)) [Example 105, 3-((Ra)-1-((1R,4R,5S)-2-azabicyclo[2.1.1]hexan-5-yl)-2-((1S,5R,7R)-6-(cyclopropanecarbonyl)-3-(1,5-dimethyl-1H-pyrazol-3-yl)-3,6-diazabicyclo[3.2.1]octan-7-yl)-7-(2,3-dichlorophenyl)-6-fluoro-4-methyl-1H-pyrrolo[3,2-c]quinolin-8-yl)propanenitrile]", "values": [
      {"measurement": "G12D_exchange (KRAS_G12D exchange assay IC50)", "setting": "KRAS G12D", "result": "†"},
      {"measurement": "G12V_exchange (KRAS_G12V exchange assay IC50)", "setting": "KRAS G12V", "result": "†"},
      {"measurement": "Papp A→B at 120 min, 50 μM", "setting": "[1]", "result": "≤ 0.5", "unit": "×10⁻⁶ cm/s"}
    ]},
    {"compound": "Cc1nc2c(F)c(-c3cccc(Cl)c3Cl)c(CCC#N)cc2c2c1cc([C@H]1[C@H]3C[C@H](CN(c4ccc(C(F)(F)F)nn4)C3)N1C(=O)C1CC1)n2[C@H]1[C@H]2CN[C@@H]1C2", "note": "(atropisomer, axis not shown; (Ra)) [Example 34, 3-((Ra)-1-((1R,4R,5S)-2-azabicyclo[2.1.1]hexan-5-yl)-2-((1S,5R,7R)-6-(cyclopropanecarbonyl)-3-(6-(trifluoromethyl)pyridazin-3-yl)-3,6-diazabicyclo[3.2.1]octan-7-yl)-7-(2,3-dichlorophenyl)-6-fluoro-4-methyl-1H-pyrrolo[3,2-c]quinolin-8-yl)propanenitrile]", "values": [
      {"measurement": "G12D_exchange (KRAS_G12D exchange assay IC50)", "setting": "KRAS G12D", "result": "†"},
      {"measurement": "G12V_exchange (KRAS_G12V exchange assay IC50)", "setting": "KRAS G12V", "result": "†"},
      {"measurement": "Papp A→B at 120 min, 50 μM", "setting": "[1]", "result": "≤ 0.5", "unit": "×10⁻⁶ cm/s"}
    ]},
    {"compound": "Cc1nc2c(F)c(-c3cccc(Cl)c3Cl)c(CCC#N)cc2c2c1cc([C@H]1[C@H]3C[C@H](CN(c4ccnc(C(C)(C)O)c4)C3)N1C(=O)C1CC1)n2[C@H]1[C@H]2CN[C@@H]1C2", "note": "(atropisomer, axis not shown; (Ra)) [Example 62, 3-((Ra)-1-((1R,4R,5S)-2-azabicyclo[2.1.1]hexan-5-yl)-2-((1S,5R,7R)-6-(cyclopropanecarbonyl)-3-(2-(2-hydroxypropan-2-yl)pyridin-4-yl)-3,6-diazabicyclo[3.2.1]octan-7-yl)-7-(2,3-dichlorophenyl)-6-fluoro-4-methyl-1H-pyrrolo[3,2-c]quinolin-8-yl)propanenitrile]", "values": [
      {"measurement": "G12D_exchange (KRAS_G12D exchange assay IC50)", "setting": "KRAS G12D", "result": "†"},
      {"measurement": "G12V_exchange (KRAS_G12V exchange assay IC50)", "setting": "KRAS G12V", "result": "†"},
      {"measurement": "Papp A→B at 120 min, 50 μM", "setting": "[1]", "result": "≤ 0.5", "unit": "×10⁻⁶ cm/s"}
    ]},
    {"compound": "Cc1nc2c(F)c(-c3cccc(Cl)c3Cl)c(CCC#N)cc2c2c1cc([C@H]1[C@H]3C[C@H](CN(c4ncc(C(F)(F)F)cn4)C3)N1C(=O)C1CC1)n2[C@H]1[C@H]2CN[C@@H]1C2", "note": "(atropisomer, axis not shown; (Ra)) [Example 41, 3-((Ra)-1-((1R,4R,5S)-2-azabicyclo[2.1.1]hexan-5-yl)-2-((1S,5R,7R)-6-(cyclopropanecarbonyl)-3-(5-(trifluoromethyl)pyrimidin-2-yl)-3,6-diazabicyclo[3.2.1]octan-7-yl)-7-(2,3-dichlorophenyl)-6-fluoro-4-methyl-1H-pyrrolo[3,2-c]quinolin-8-yl)propanenitrile]", "values": [
      {"measurement": "G12D_exchange (KRAS_G12D exchange assay IC50)", "setting": "KRAS G12D", "result": "†"},
      {"measurement": "G12V_exchange (KRAS_G12V exchange assay IC50)", "setting": "KRAS G12V", "result": "†"},
      {"measurement": "Papp A→B at 120 min, 50 μM", "setting": "[1]", "result": "≤ 0.5", "unit": "×10⁻⁶ cm/s"}
    ]},
    {"compound": "Cc1nc2c(F)c(-c3cccc(Cl)c3Cl)c(CCC#N)cc2c2c1cc([C@H]1[C@H]3C[C@H](CN(c4ccon4)C3)N1C(=O)C1CC1)n2[C@H]1[C@H]2CN[C@@H]1C2", "note": "(atropisomer, axis not shown; (Ra)) [Example 100, 3-((Ra)-1-((1R,4R,5S)-2-azabicyclo[2.1.1]hexan-5-yl)-2-((1S,5R,7R)-6-(cyclopropanecarbonyl)-3-(isoxazol-3-yl)-3,6-diazabicyclo[3.2.1]octan-7-yl)-7-(2,3-dichlorophenyl)-6-fluoro-4-methyl-1H-pyrrolo[3,2-c]quinolin-8-yl)propanenitrile]", "values": [
      {"measurement": "G12D_exchange (KRAS_G12D exchange assay IC50)", "setting": "KRAS G12D", "result": "†"},
      {"measurement": "G12V_exchange (KRAS_G12V exchange assay IC50)", "setting": "KRAS G12V", "result": "†"},
      {"measurement": "Papp A→B at 120 min, 50 μM", "setting": "[1]", "result": "≤ 0.5", "unit": "×10⁻⁶ cm/s"}
    ]},
    {"compound": "Cc1cc(N2C[C@@H]3C[C@H](C2)N(C(=O)C2CC2)[C@H]3c2cc3c(C)nc4c(F)c(-c5cccc(Cl)c5Cl)c(CCC#N)cc4c3n2[C@H]2[C@H]3CN[C@@H]2C3)cc(C(F)F)n1", "note": "(atropisomer, axis not shown; (Ra)) [Example 84, 3-((Ra)-1-((1R,4R,5S)-2-azabicyclo[2.1.1]hexan-5-yl)-2-((1S,5R,7R)-6-(cyclopropanecarbonyl)-3-(2-(difluoromethyl)-6-methylpyridin-4-yl)-3,6-diazabicyclo[3.2.1]octan-7-yl)-7-(2,3-dichlorophenyl)-6-fluoro-4-methyl-1H-pyrrolo[3,2-c]quinolin-8-yl)propanenitrile]", "values": [
      {"measurement": "G12D_exchange (KRAS_G12D exchange assay IC50)", "setting": "KRAS G12D", "result": "†"},
      {"measurement": "G12V_exchange (KRAS_G12V exchange assay IC50)", "setting": "KRAS G12V", "result": "†"},
      {"measurement": "Papp A→B at 120 min, 50 μM", "setting": "[1]", "result": "≤ 0.5", "unit": "×10⁻⁶ cm/s"}
    ]},
    {"compound": "Cc1nc2c(F)c(-c3cccc(Cl)c3Cl)c(CCC#N)cc2c2c1cc([C@H]1[C@H]3C[C@H](CN(c4ccc(C(F)(F)F)nc4)C3)N1C(=O)C1CC1)n2[C@H]1[C@H]2CN[C@@H]1C2", "note": "(atropisomer, axis not shown; (Ra)) [Example 5, 3-((Ra)-1-((1R,4R,5S)-2-azabicyclo[2.1.1]hexan-5-yl)-2-((1S,5R,7R)-6-(cyclopropanecarbonyl)-3-(6-(trifluoromethyl)pyridin-3-yl)-3,6-diazabicyclo[3.2.1]octan-7-yl)-7-(2,3-dichlorophenyl)-6-fluoro-4-methyl-1H-pyrrolo[3,2-c]quinolin-8-yl)propanenitrile]", "values": [
      {"measurement": "G12D_exchange (KRAS_G12D exchange assay IC50)", "setting": "KRAS G12D", "result": "†"},
      {"measurement": "G12V_exchange (KRAS_G12V exchange assay IC50)", "setting": "KRAS G12V", "result": "†"},
      {"measurement": "Papp A→B at 120 min, 50 μM", "setting": "[1]", "result": "≤ 0.5", "unit": "×10⁻⁶ cm/s"}
    ]},
    {"compound": "Cc1nc2c(F)c(-c3cccc(Cl)c3Cl)c(CCC#N)cc2c2c1cc([C@H]1[C@H]3C[C@H](CN(c4ccnc(C(F)(F)F)c4)C3)N1C(=O)C1CC1)n2[C@H]1[C@H]2CN[C@@H]1C2", "note": "(atropisomer, axis not shown; (Ra)) [Example 38, 3-((Ra)-1-((1R,4R,5S)-2-azabicyclo[2.1.1]hexan-5-yl)-2-((1S,5R,7R)-6-(cyclopropanecarbonyl)-3-(2-(trifluoromethyl)pyridin-4-yl)-3,6-diazabicyclo[3.2.1]octan-7-yl)-7-(2,3-dichlorophenyl)-6-fluoro-4-methyl-1H-pyrrolo[3,2-c]quinolin-8-yl)propanenitrile]", "values": [
      {"measurement": "G12D_exchange (KRAS_G12D exchange assay IC50)", "setting": "KRAS G12D", "result": "†"},
      {"measurement": "G12V_exchange (KRAS_G12V exchange assay IC50)", "setting": "KRAS G12V", "result": "†"},
      {"measurement": "Papp A→B at 120 min, 50 μM", "setting": "[1]", "result": "≤ 0.5", "unit": "×10⁻⁶ cm/s"}
    ]}
  ]
}
